According to patent US3982931A, “N,N-di-sec.butyl-benzamide herbicides” (priority 1967, dated 1976):

Assays:
[1] = test system: triticum vulgare L. (wheat); assay: activity on agrarian species, soil treatment one day after sowing; assay type: in vivo; details: in vivo
Text: (§1) The infesting species and the agrarian species have been indicated in Table 1 by letters, as follows:
N = triticum vulgare L. (wheat)
(§2) Method of evaluation of the results (of tests):
(§3) 0 = no activity and no difference with respect to the control;
(§4) 1 slight differences with respect to the control;
(§5) 3 = considerable activity with damages that definitely impair the further development of most of the small plants; an activity degree already useful for practical purposes;
(§6) 4 = maximum of activity with lack of germination or total containment of the small plants in the emerging stage.
(§7) In the case of an intermediate activity between two classes of the scale, both values are recorded with the one which corresponds to the preeminent activity preceding.
(§8) TABLE 2 reports the activity data of other compounds that fall within the class which is the object of this invention.
(§9) TABLE 3 reports data on the herbicidal activity against infesting herbs, while TABLE 4 reports data concerning the activity on useful species of agricultural cultivations. These tables employ the criterion explained previously. The product was spread on the soil one day after sowing, in quantities of 1, 3, 6, 8, 10, 12 and 14 kg/ha.

setaria glauca L. = assay: herbicidal activity, soil treatment one day after sowing; assay type: in vivo
Text: as §1, §2, §4, §5, §6
(§10) In the case of an intermediate activity between two classes of the scale, both values are recorded with the one which corresponds to the preeminent activity preceding. […]
(§11) TABLE 3 reports data on the herbicidal activity against infesting herbs, while TABLE 4 reports data concerning the activity on useful species of agricultural cultivations. These tables employ the criterion explained previously. […]

[2] = test system: phaseolus vulgaris (bean); assay: activity on agrarian species, soil treatment one day after sowing; assay type: in vivo, Phaseolus vulgaris L.; details: in vivo
Text: as §1
I = phaseolus vulgaris (bean)
as §2, §3, §4, §5, §6, §7, §8, §9

[3] = test system: amaranthus retroflexus L.; assay: herbicidal activity, soil treatment one day after sowing; assay type: in vivo
Text: as §1
A = amaranthus retroflexus L.
as §2, §4, §5, §6, §7, §8, §11

solanum Lycopersicum L. = assay: activity on agrarian species, soil treatment one day after sowing; assay type: in vivo; details: in vivo
Text: as §1
M = solanum Lycopersicum L.
as §2, §3, §4, §5, §6, §10

zea mais L. (corn) = assay: as above; assay type: in vivo; details: in vivo
Text: as §1, §2, §3, §4, §5, §6, §7, §8, §9

artemisia vulgaris L. = assay: herbicidal activity, soil treatment one day after sowing; assay type: in vivo
Text: as §1
B = artemisia vulgaris L.
as §2, §4, §5, §6, §7, §8, §11

chenopodium album L. = assay: as above; assay type: in vivo
Text: as §1, §2, §4, §5, §6, §7, §8, §11

avena sativa (oats) = assay: activity on agrarian species, soil treatment one day after sowing; assay type: in vivo, Avena sativa L.; details: in vivo
Text: as §1, §2, §3, §4, §5, §6, §7, §8, §9

oryza sativa L. (rice) = assay: as above; assay type: in vivo; details: in vivo
Text: as §1
P = oryza sativa L. (rice)
as §2, §3, §4, §5, §6, §7, §8, §9

[4] = test system: echinocloa crus-galli R.S.; assay: herbicidal activity, soil treatment one day after sowing; assay type: in vivo
Text: as §1
D = echinocloa crus-galli R.S.
as §2, §4, §5, §6, §7, §8, §11

pisum sativum L. (pea) = assay: activity on agrarian species, soil treatment one day after sowing; assay type: in vivo; details: in vivo
Text: as §1
L = pisum sativum L. (pea)
as §2, §3, §4, §5, §6, §7, §8, §11

[5] = test system: beta vulgaris L. (sugar-beet); assay: as above; assay type: in vivo; details: in vivo
Text: as §1
H = beta vulgaris L. (sugar-beet)
as §2, §3, §4, §5, §6, §7, §8, §9

vicia sativa L. = assay: herbicidal activity, soil treatment one day after sowing; assay type: in vivo
Text: as §1, §2, §4, §5, §6, §7, §8

Row | activity on N, 0-4 scale [1] | activity on I, 0-4 scale [2] | activity on M, 0-4 scale (solanum Lycopersicum L.) | activity on O, 0-4 scale (zea mais L. (corn)) | activity on G, 0-4 scale (avena sativa (oats)) | activity on P, 0-4 scale (oryza sativa L. (rice)) | activity on L, 0-4 scale (pisum sativum L. (pea)) | SMILES | activity on E, 0-4 scale (setaria glauca L.; 2 kg/ha) | activity on A, 0-4 scale ([3]; 2 kg/ha) | activity on A, 0-4 scale ([3]; 6 kg/ha) | activity on B, 0-4 scale (artemisia vulgaris L.; 2 kg/ha) | activity on B, 0-4 scale (artemisia vulgaris L.; 6 kg/ha) | activity on C, 0-4 scale (chenopodium album L.; 2 kg/ha) | activity on C, 0-4 scale (chenopodium album L.; 6 kg/ha) | activity on D, 0-4 scale ([4]; 2 kg/ha) | activity on D, 0-4 scale ([4]; 6 kg/ha) | activity on F, 0-4 scale (vicia sativa L.; 2 kg/ha) | activity on F, 0-4 scale (vicia sativa L.; 6 kg/ha) | activity on E, 0-4 scale (setaria glauca L.; 6 kg/ha) | activity on D, 0-4 scale ([4]; 4 kg/ha) | further results
1 | 0 | 0 |  | 0 | 0 | 0 | 0 | CCC(C)N(C(=O)c1cc(Cl)c(Cl)cc1Cl)C(C)CC (stereo not shown) [PA338, 2,4,5-trichloro-N,N-di-sec.butyl-benzamide] | 2-3 |  | 2 |  | 1-2 |  | 2 | 2-3 | 3-4 |  | 0-1 | 3-4 | 3 | activity on E, 0-4 scale (setaria glauca L.; 4 kg/ha): 3
2 | 0 | 0 | 1 | 0 | 0 | 0 | 0 | CCC(C)N(C(=O)c1cc(Cl)ccc1Cl)C(C)CC (stereo not shown) [PA412, 2,5-dichloro-N,N-di-sec.butyl-benzamide] | 3 |  | 3 |  | 2 |  | 2-3 | 3 | 4 |  | 0 | 4 |  | activity on E, 0-4 scale (setaria glauca L.; 1 kg/ha): 3; activity on E, 0-4 scale (setaria glauca L.; 3 kg/ha): 4; activity on A, 0-4 scale ([3]; 3 kg/ha): 2; activity on B, 0-4 scale (artemisia vulgaris L.; 3 kg/ha): 1; activity on C, 0-4 scale (chenopodium album L.; 3 kg/ha): 1-2; activity on D, 0-4 scale ([4]; 1 kg/ha): 1-2; activity on D, 0-4 scale ([4]; 3 kg/ha): 3-4; activity on F, 0-4 scale (vicia sativa L.; 3 kg/ha): 0
3 | 0 | 0 | 0 | 0 | 0 | 0 | 0 | CCC(C)N(C(=O)c1ccc(C)c(Cl)c1)C(C)CC (stereo not shown) [PA445, 3-chloro,4-methyl-N,N-di-sec.butyl-benzamide] | 3-4 | 0-1 | 2 | 1 | 3-4 | 1 | 4 | 3 | 4 | 0 | 0-1 | 4 | 3-4 | activity on A, 0-4 scale ([3]; 4 kg/ha): 1; activity on B, 0-4 scale (artemisia vulgaris L.; 4 kg/ha): 2; activity on C, 0-4 scale (chenopodium album L.; 4 kg/ha): 2-3; activity on F, 0-4 scale (vicia sativa L.; 4 kg/ha): 0
4 | 0 | 0 |  |  | 0 | 0 | 0 | CCC(C)N(C(=O)c1ccc(Cl)c(Cl)c1Cl)C(C)CC (stereo not shown) [PA488, 2,3,4-trichloro-N,N-di-sec.butyl-benzamide] |  | 0 | 3-4 | 0 |  | 1-2 | 3 | 3-4 | 4 | 0 | 0 | 4 | 4 | activity on E, 0-4 scale (setaria glauca L.; 4 kg/ha): 4; activity on A, 0-4 scale ([3]; 4 kg/ha): 1; activity on B, 0-4 scale (artemisia vulgaris L.; 4 kg/ha): 0-1; activity on C, 0-4 scale (chenopodium album L.; 4 kg/ha): 3; activity on D, 0-4 scale ([4]; 1 kg/ha): 2; activity on F, 0-4 scale (vicia sativa L.; 4 kg/ha): 0

Further lines, the compound ahead of its results:

Row | SMILES | activity on N, 0-4 scale [1] | activity on I, 0-4 scale [2] | activity on M, 0-4 scale (solanum Lycopersicum L.) | activity on O, 0-4 scale (zea mais L. (corn)) | activity on G, 0-4 scale (avena sativa (oats)) | activity on P, 0-4 scale (oryza sativa L. (rice)) | activity on L, 0-4 scale (pisum sativum L. (pea)) | activity on E, 0-4 scale (setaria glauca L.; 2 kg/ha) | activity on A, 0-4 scale ([3]; 2 kg/ha) | activity on A, 0-4 scale ([3]; 6 kg/ha) | activity on B, 0-4 scale (artemisia vulgaris L.; 2 kg/ha) | activity on B, 0-4 scale (artemisia vulgaris L.; 6 kg/ha) | activity on C, 0-4 scale (chenopodium album L.; 2 kg/ha) | activity on C, 0-4 scale (chenopodium album L.; 6 kg/ha) | activity on D, 0-4 scale ([4]; 2 kg/ha) | activity on D, 0-4 scale ([4]; 6 kg/ha) | activity on F, 0-4 scale (vicia sativa L.; 2 kg/ha) | activity on F, 0-4 scale (vicia sativa L.; 6 kg/ha) | activity on E, 0-4 scale (setaria glauca L.; 6 kg/ha) | activity on D, 0-4 scale ([4]; 4 kg/ha) | further results
5 | CCN(CC)C(=O)c1ccc(Cl)c(Cl)c1 [PA61, 3,4-dichloro-N,N-diethyl-benzamide, reference compound] | 1 | 1 | 3-4 | 2 | 1 | 3 | 1 | 2 | 3 | 3-4 | 3 | 3-4 | 3 | 3 | 1 | 3 | 2-3 | 3 |  |  | activity on H, 0-4 scale [5]: 3-4
6 | CCN(CC)C(=O)c1cccc(Cl)c1 [PA321, 3,chloro-N,N-diethyl-benzamide, reference compound] | 2-3 | 1-0 |  | 0-1 | 1 | 2 | 2 |  |  | 1-2 |  | 2 |  | 1-2 |  | 1 |  | 1 | 1 |  | 
7 | CCC(C)N(C(=O)c1cccc(Br)c1)C(C)CC (stereo not shown) [PA337/3/Br, 3-bromo-N,N-di-sec.butyl-benzamide] | 0 |  |  | 0 | 0 | 0 | 0 | 2-3 | 1 |  |  | 3 | 1 | 4 | 2 | 4 | 0-1 |  | 4 | 4 | activity on E, 0-4 scale (setaria glauca L.; 4 kg/ha): 4; activity on A, 0-4 scale ([3]; 4 kg/ha): 2-3; activity on B, 0-4 scale (artemisia vulgaris L.; 4 kg/ha): 1; activity on C, 0-4 scale (chenopodium album L.; 4 kg/ha): 3; activity on H, 0-4 scale [5]: 1
8 | CCC(C)N(C(=O)c1ccc(Br)c(C)c1)C(C)CC (stereo not shown) [PA481, 3-methyl,4-bromo-N,N-di-sec.butyl-benzamide] | 0 | 0 |  | 0 | 0 | 0 | 0 |  |  |  |  | 3 |  | 2-3 |  |  |  | 0-1 | 3-4 |  | 
9 | CCC(C)N(C(=O)c1cccc(I)c1)C(C)CC (stereo not shown) [PA491, 3-iodo-N,N-di-sec.butyl-benzamide] | 0 | 0 |  | 0 | 0 | 0 | 0 | 3 | 1 | 3-4 | 1 | 4 | 2 | 3-4 | 3 | 4 | 0 | 1 | 4 |  | activity on A, 0-4 scale ([3]; 4 kg/ha): 1-2; activity on B, 0-4 scale (artemisia vulgaris L.; 4 kg/ha): 3; activity on C, 0-4 scale (chenopodium album L.; 4 kg/ha): 2-3; activity on F, 0-4 scale (vicia sativa L.; 4 kg/ha): 0
10 | CCCCN(C(=O)c1ccc(Cl)c(Cl)c1)C(C)CC (stereo not shown) [PA514, 3,4-dichloro-N-n.butyl,N-sec.butyl-benzamide] | 0 | 0 | 0 | 0 | 0 | 0 | 0 | 2 |  | 1 |  | 0-1 |  | 2 | 1 | 3 |  | 0-1 |  | 2-3 | activity on E, 0-4 scale (setaria glauca L.; 4 kg/ha): 3
